Columns and labels:
Type in all cases: in vivo
[1] = system: syndromes produced by 5-hydroxytryptophan (5-HTP); assay: 5-HTP response potentiation test; conditions: Mus musculus, ip; mice; before dl-5-HTP 90 mg/kg i.v.
Excerpt: It is not possible by experimental means to induce depressions in laboratory animals. In order to evaluate a possible anti depressive effect on new substances biochemical-pharmacological test methods must be resorted to. One such method, which seems to give a good indication of the potential anti depressive effects of the test substances, is described in Europ. J. Pharmacol. 17, 107, 1972. This method involves the measurement of the potentiation of the syndromes produced by 5-hydroxytryptophan (5-HTP) in a laboratory animal.
5-HTP response potantiation test
Inhibition of the uptake of 5-HT potentiates the effects of administered 5-hydroxytryptophan (5-HTP) probably by increasing the amount of 5-HT at the receptor. Three mice are given the test drugs 1 hour (or 4, 24 hours) before dl-5-HTP, 90 mg/kg i.v. 5-HTP alone gives only a weak behavioural syndrome but in pretreated mice there is seen a characteristic behavioural syndrome, which comes within five minutes: tremor, lordosis, abduction of the hindlegs, head-twitches.
The absence or presence of respective syndrome is scored in groups of ten mice. The compound was administered in at least five doses and the quantal responses were analysed by probit analysis and ED50 determined according to the method of Litchfield and Wilcoxon.

[2] = system: motor activity in mice; assay: Motor activity in mice (exploratory activity in locomotion cage); set-up: key to Motor Activity (+ = increase, - = decrease, 0 = no effect): + = increase; - = decrease; 0 = no effect; conditions: for Motor Activity (+ = increase, - = decrease, 0 = no effect): recorded for ten minutes one hour after administration, compared to control groups
Method: The lack of euphoric effects, that is lack of central stimulatory activity, is tested by measuring the motor activity in mice after administration of the test substance.
The exploratory activity of mice was recorded in a locomotion cage in which the movements were counted each time the animals cross-circuits an electrical current in the bottom plate. The activity was recorded for ten minutes one hour after the administration of the drug. The animals were tested individually. Groups of six mice were used and the mice were only used once. The activity was expressed in per cent of the activity of control groups ran simultaneously. The compounds were administered in at least four doses. The increase (+) or decrease (-) of the activity compared to control groups was determined from log dose response curves.

[3] = system: aggressive behaviour in mice; assay: Aggressive behaviour in isolated male mice (antiaggressivity); conditions: Mus musculus, ip, dose which reduces aggressiveness score by 50%, read-out: Antiaggressive behaviour in mice ED50
Method: Potential anxiolytic activity is tested by measuring the antiaggressivity in isolated mice after administration of the test substance. In this test not amphetamine but Valium -- a well-known anxiolytic substance -- is used as a reference.
Aggressive behaviour in mice
Male mice kept isolated for 3 weeks or longer develop an aggressive behavior when caged together. The method used follows that of Valzelli et al. (Europ. J. Pharmacol. 2, 144, 1967), with the exception that 2 mice were tested on each other. The aggressiveness was scored during a 5 min test according to the following schedule:
0 the animals show no interest in each other except occasional nosing
25 frequent vigorous nosing and tail rattling, the animals assume a fighting position and occassionally attack each other -- no more than 3-4 times in the 5 min period
50 tail rattling, powerful attacks -- no more than 10 times in the test period
75 the animals follow their partners, attacking and biting for most of the time
100 attacks over the entire period.
The animals were used for several experiments but with intervals of at least one week. Groups of 10 mice were used.
ED50 is the dose which reduces the aggressiveness score by 50%.

`CC(N)Cc1ccc(N)cc1` (centres unmarked) [p-Aminoamphetamine, reference compound] gave an ED50 [1] of 11.5 mg/kg.

With `CC(N)Cc1ccccc1` (centres unmarked) [Amphetamine] the “central stimulation (in words)” value [2] was “pronounced” and the ED50 [1] was greater than 5 mg/kg.

With `CC(N)Cc1ccc(Cl)cc1` (centres unmarked) [p-Chloroamphetamine, reference compound] the “central stimulation (in words)” value [2] was “pronounced”, the ED50 [1] was 0.8 mg/kg and the ED50 [3] was 0.3 mg/kg.

With `CCN(CC)c1ccc(CC(C)N)cc1` (centres unmarked) [H H C2 H5 C2 H5 H CH3] the “Motor Activity (+ = increase, - = decrease, 0 = no effect)” value [2] was “-”, the ED50 [1] was 2 mg/kg and the ED50 [3] was 5 to 10 mg/kg.

With `CC(N)Cc1ccc(N(C)C)cc1Cl.Cl.Cl` (centres unmarked) [H 2-Cl CH3 CH3 H CH3] the “Motor Activity (+ = increase, - = decrease, 0 = no effect)” value [2] was “-”, the ED50 [1] was 0.25 mg/kg and the ED50 [3] was 2.5 to 5 mg/kg.

In the case of `CC(N)Cc1c(Cl)cc(N(C)C)cc1Cl.Cl.Cl` (centres unmarked) [2-Cl 6-Cl CH3 CH3 H CH3], the “Motor Activity (+ = increase, - = decrease, 0 = no effect)” value [2] was “-”, the ED50 [1] was 0.1 mg/kg and the ED50 [3] was greater than 5 mg/kg.

In the case of `CN1C(=O)CN=C(c2ccccc2)c2cc(Cl)ccc21` [Valium, reference compound], the ED50 [3] was 2.5 mg/kg.

With `Cc1cc(N(C)C)ccc1CC(C)N.Cl.Cl` (centres unmarked) [H 2-CH3 CH3 CH3 H CH3] the “Motor Activity (+ = increase, - = decrease, 0 = no effect)” value [2] was “-”, the ED50 [1] was 0.6 mg/kg and the ED50 [3] was 2.5 to 5 mg/kg.

`CCN(C)c1ccc(CC(C)N)cc1` (centres unmarked) [H H C2 H5 CH3 H CH3] showed an ED50 [1] of 0.7 mg/kg and an ED50 [3] of less than 5 mg/kg.

For `CCNc1ccc(CC(C)N)cc1.Cl.Cl` (centres unmarked) [H H C2 H5 H H CH3], the ED50 [1] was 1 mg/kg and the ED50 [3] was 1.25 mg/kg.

For `CCC(N)Cc1ccc(N(C)C)cc1Cl` (centres unmarked) [H 2-Cl CH3 CH3 H C2 H5], the “Motor Activity (+ = increase, - = decrease, 0 = no effect)” value [2] was 0 and the ED50 [1] was 0.25 mg/kg.

`CC(N)Cc1ccc(N(C)C)cc1Br.Cl.Cl` (centres unmarked) [H 2-Br CH3 CH3 H CH3] showed an ED50 [1] of 0.1 mg/kg.

`CC(N)Cc1ccc2c(c1)CCCN2C.Cl.Cl` (centres unmarked) [H H CH3 (CH2)3 H CH3, 6-(2-AMINOPROPYL)-1-METHYL-1, 2, 3, 4-TETRAHYDROQUINOLINE DIHYDROCHLORIDE] gave an ED50 [1] of 1.5 mg/kg and an ED50 [3] greater than 5 mg/kg.

`CC(N)Cc1ccc(N(C)C)c(Br)c1.Cl.Cl` (centres unmarked) [H 3-Br CH3 CH3 H CH3] was tested, and the ED50 [1] was 1 mg/kg and the ED50 [3] was greater than 5 mg/kg.

With `CN(C)c1ccc(CC(C)(C)N)cc1.Cl.Cl` [H H CH3 CH3 CH3 CH3] the “Motor Activity (+ = increase, - = decrease, 0 = no effect)” value [2] was 0 and the ED50 [1] was 2.5 mg/kg.
